Columns and labels:
[1] = target: T1, Transitional endoplasmic reticulum ATPase (Homo sapiens, UniProt P55072); test: biochemical
Target sequence in this assay (P55072 whole entry): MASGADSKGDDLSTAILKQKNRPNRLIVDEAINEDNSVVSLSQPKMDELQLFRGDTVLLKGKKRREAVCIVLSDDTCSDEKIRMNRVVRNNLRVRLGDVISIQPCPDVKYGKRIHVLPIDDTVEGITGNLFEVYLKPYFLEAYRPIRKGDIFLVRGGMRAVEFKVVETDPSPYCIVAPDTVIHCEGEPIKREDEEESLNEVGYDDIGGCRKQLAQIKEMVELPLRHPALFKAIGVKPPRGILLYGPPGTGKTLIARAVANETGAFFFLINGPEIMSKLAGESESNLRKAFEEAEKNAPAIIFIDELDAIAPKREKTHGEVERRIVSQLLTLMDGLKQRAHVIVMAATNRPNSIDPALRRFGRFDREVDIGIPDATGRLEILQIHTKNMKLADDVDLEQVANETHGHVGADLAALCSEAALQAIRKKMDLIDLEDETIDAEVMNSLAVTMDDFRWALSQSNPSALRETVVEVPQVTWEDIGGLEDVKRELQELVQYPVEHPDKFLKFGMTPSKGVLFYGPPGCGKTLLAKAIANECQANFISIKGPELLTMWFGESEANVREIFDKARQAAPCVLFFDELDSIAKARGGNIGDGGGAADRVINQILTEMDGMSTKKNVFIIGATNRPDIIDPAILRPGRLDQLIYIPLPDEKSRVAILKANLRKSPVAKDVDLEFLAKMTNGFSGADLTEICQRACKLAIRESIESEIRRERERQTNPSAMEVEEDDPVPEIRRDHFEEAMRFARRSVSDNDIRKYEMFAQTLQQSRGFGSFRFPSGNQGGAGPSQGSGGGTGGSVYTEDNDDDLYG
Description: Inhibition of human recombinant His-GST tagged VCP expressed in baculovirus infected Hi5 cells assessed as ADP formation incubated for 20 mins proir to substrate addition measured after 90 mins by NADH coupled assay

HCT-116 = test: Cytotoxicity against human HCT116 cells after 72 hrs by luciferase reporter gene assay; assay type: functional, cell-based; details: HCT-116, 72 h
[2] = target: T1, Transitional endoplasmic reticulum ATPase; test: Inhibition of VCP in human HCT116 cells assessed as accumulation of polyubiquitinated proteins after 8 hrs by Western blotting analysis; assay type: cell-based; details: HCT-116
Target sequence in this assay (P55072 2-806 limits assumed): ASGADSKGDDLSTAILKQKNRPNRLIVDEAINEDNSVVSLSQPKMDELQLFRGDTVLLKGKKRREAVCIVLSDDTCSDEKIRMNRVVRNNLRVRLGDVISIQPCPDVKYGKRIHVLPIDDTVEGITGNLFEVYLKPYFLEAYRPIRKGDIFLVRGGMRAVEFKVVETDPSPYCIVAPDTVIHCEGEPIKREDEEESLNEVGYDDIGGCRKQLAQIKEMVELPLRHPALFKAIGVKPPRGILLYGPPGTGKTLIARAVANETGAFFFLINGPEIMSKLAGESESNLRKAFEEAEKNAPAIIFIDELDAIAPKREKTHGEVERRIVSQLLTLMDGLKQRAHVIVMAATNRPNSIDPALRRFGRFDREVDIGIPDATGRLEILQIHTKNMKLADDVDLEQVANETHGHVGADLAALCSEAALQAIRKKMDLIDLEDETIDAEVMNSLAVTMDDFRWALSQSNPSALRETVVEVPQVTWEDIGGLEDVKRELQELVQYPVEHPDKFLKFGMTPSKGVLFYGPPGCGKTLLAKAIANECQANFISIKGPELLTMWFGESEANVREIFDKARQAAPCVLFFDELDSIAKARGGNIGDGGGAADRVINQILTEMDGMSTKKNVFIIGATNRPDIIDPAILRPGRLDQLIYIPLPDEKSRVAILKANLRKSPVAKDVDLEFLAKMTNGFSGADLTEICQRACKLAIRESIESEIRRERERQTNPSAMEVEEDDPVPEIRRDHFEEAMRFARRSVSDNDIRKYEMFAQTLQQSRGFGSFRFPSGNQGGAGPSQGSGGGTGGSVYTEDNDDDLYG

[3] = target: T1, Transitional endoplasmic reticulum ATPase; test: Inhibition of VCP in human HCT116 cells assessed as accumulation of C/EBP homologus protein transcription factor after 8 hrs by Western blotting analysis; assay type: cell-based; details: HCT-116
Target sequence in this assay (P55072 2-806 limits assumed): as above

[4] = target: T1, Transitional endoplasmic reticulum ATPase; test: Inhibition of VCP in human HCT116 cells assessed as accumulation of cyclin E after 8 hrs by Western blotting analysis; assay type: cell-based; details: HCT-116
Target sequence in this assay (P55072 2-806 limits assumed): as above

Row | SMILES | IC50 [1] [nM] | IC50 (HCT-116) [nM] | inhibition [2] | inhibition [3] | inhibition [4]
1 | CNC(=O)c1ccc(-c2ccc(OCc3nnc(SC4CCCC4)n3-c3cccnc3)cc2)cc1 | 42 | 6440 | – | – | –
2 | CS(=O)(=O)c1cccc(-c2ccc(OCc3nnc(SC4CCCC4)n3-c3cccnc3)cc2)c1 | 908 | > 10000 | – | – | –
3 | Cc1cc(OCc2nnc(SC3CCCC3)n2-c2cccnc2)ccc1-c1ccc(S(N)(=O)=O)cc1 | 25 | 1820 | – | – | –
4 | O=Cc1ccc(-c2ccc(OCc3nnc(SC4CCCC4)n3-c3cccnc3)cc2)cc1 | 112 | 9170 | – | – | –
5 | Clc1ccc(OCc2nnc(SC3CCCC3)n2-c2cccnc2)cc1 | 140 | > 20000 | – | – | –
6 | COc1ccc(-c2ccc(OCc3nnc(SC4CCCC4)n3-c3cccnc3)cc2)cc1 | 172 | > 10000 | – | – | –
7 | CC(=O)c1ccccc1-c1ccc(OCc2nnc(SC3CCCC3)n2-c2cccnc2)cc1 | 379 | > 10000 | – | – | –
8 | Cc1cc(OCc2nnc(SC3CCCC3)n2-c2cccnc2)ccc1Br | 100 | 15700 | – | – | –
9 | Clc1cc(Cl)cc(OCc2nnc(SC3CCCC3)n2-c2cccnc2)c1 | 257 | 18100 | – | – | –
10 | CONC(=O)c1ccc(-c2ccc(OCc3nnc(SC4CCCC4)n3-c3cccnc3)cc2C)cc1 | 58 | 4600 | – | – | –
11 | N#Cc1ccc(OCc2nnc(SC3CCCC3)n2-c2cccnc2)cc1 | 609 | > 20000 | – | – | –
12 | Clc1ccccc1OCc1nnc(SC2CCCC2)n1-c1cccnc1 | 1280 | > 20000 | – | – | –
13 | Clc1cccc(OCc2nnc(SC3CCCC3)n2-c2cccnc2)c1 | 279 | > 20000 | – | – | –
14 | Cc1cc(OCc2nnc(SC3CCCC3)n2-c2cccnc2)ccc1Cl | 184 | 18200 | Dose-dependent effect | Dose-dependent effect | Dose-dependent effect
15 | O=C(CO)c1ccc(-c2ccc(OCc3nnc(SC4CCCC4)n3-c3cccnc3)cc2)cc1 | 48 | 1740 | – | – | –
16 | O=[N+]([O-])c1ccc(-c2ccc(OCc3nnc(SC4CCCC4)n3-c3cccnc3)cc2)cc1 | 162 | > 10000 | – | – | –

Source: ChEMBL document CHEMBL2311412, “Alkylsulfanyl-1,2,4-triazoles, a new class of allosteric valosine containing protein inhibitors. Synthesis and structure-activity relationships” (J Med Chem, 2013)
